Results as given in US11793746B2, “Intense skin hydration systems and methods” (priority 2020, dated 2023).

What was measured:
hepatocytes = test: Cellular O2 consumption measured with an oxygraph; type: cell-based; settings: 3% GC-100
Description: Increased cellular respiration may be equated with more efficient use of cellular reserves (e.g., polysaccharides & triglycerides) and improved elimination of metabolic waste. The end result of enhanced cellular respiration is cellular regeneration and restoration of the organ system being evaluated. The activation of cellular respiration can be evaluated using an oxygraph. Since the oxygraph electrode response is directly proportional to the concentration of dissolved O2 in the test media, a measure of cellular O2 consumption can be calculated to yield information on changes in cellular respiration. […] FIG. 4 is a graph showing hepatocyte oxygen consumption in the presence of GC-100 at various concentrations.

[1] = tested on: collagen I and III synthesis; test: [3H]-Proline incorporation as measure of collagen deposition; type: cell-based, human; settings: in vitro
Description: This human skin substrate consists of neonatal foreskin fibroblasts that secrete a functionally active extracellular matrix grown on a medical-grade nylon mesh cocultured with human neonatal foreskin keratinocytes that differentiate into a multilayered epidermis.
Quantifying proline incorporation can be used to measure potential collagen deposition stimulated by a test substance. This concept is the foundation for the following experiments.

tyrosinase = molecular target: T1, tyrosinase (Mus musculus, UniProt P11344); test: Tyrosinase activity in B16 melanoma cells; type: cell-based
T1 construct: endogenous in cells; host or cells: B16 melanoma cells
T1 sequence (P11344 19-533): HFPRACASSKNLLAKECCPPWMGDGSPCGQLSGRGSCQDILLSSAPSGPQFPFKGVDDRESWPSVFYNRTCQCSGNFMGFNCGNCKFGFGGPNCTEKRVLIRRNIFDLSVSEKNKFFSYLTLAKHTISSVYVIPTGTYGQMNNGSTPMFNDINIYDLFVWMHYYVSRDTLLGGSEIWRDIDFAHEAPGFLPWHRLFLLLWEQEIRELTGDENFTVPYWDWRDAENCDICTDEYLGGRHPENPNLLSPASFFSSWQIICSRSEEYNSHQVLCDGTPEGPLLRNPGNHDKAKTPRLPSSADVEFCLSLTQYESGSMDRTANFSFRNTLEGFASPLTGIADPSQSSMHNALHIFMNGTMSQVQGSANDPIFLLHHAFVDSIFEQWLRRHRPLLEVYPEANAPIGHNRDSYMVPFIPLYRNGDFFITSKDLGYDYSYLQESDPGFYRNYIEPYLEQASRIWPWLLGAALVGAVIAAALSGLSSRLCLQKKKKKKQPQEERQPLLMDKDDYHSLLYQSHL
Method: This Example establishes and quantifies the effect of GC-100 on tyrosinase synthesis in B16 melanoma cells.
It has been reported that tyrosinase in synthesized in B16 melanoma cells within 24 hours of plating. On the basis of these reports, B16 melanoma cells were used to evaluate the inhibitory effects of GC-100 on tyrosinase synthesis. As an indication of tyrosinase synthesis, tyrosinase activity in B16 melanoma cells was measured in addition to the amount of melanin synthesized per cell.
B16 melanoma cells (5.0′×10^4) were incubated in a 96-well microplate supplemented with DMEM and 5% fetal calf serum at 37° C. for 24 hours. Incubation was continued for an additional 24 hours at 37° C. in DMEM supplemented with GC-100 at either 250 μg/mL, 500 μg/mL, or 1000 μg/mL. After washing cells with PBS twice, the cells were lysed with 50 μL of phosphate buffer (0.05 mM, pH 6.8) containing 0.1% Triton-X, and incubated at 37° C. for 30 minutes. Then 100 μL of phosphate buffer (0.1 mM, pH 6.8) containing 0.1% DOPA was added to the lysate and incubated at 37° C. for 3 hours. The resultant melanin content and protein content of the lysate were then quantified.
GC-100 selected for examination was quantitatively evaluated regarding its inhibitory activity of melanogenesis in B16 melanoma cells. B16 melanoma cells were seeded into a 60 mm diameter dish at density of 1.5′×10^5 cells/dish and incubated at 37° C. in DMEM supplemented with 10% FCS and 40 mM sodium lactate. After 4 days, the medium was exchanged to DMEM supplemented with 5% FCS and the aforementioned concentrations of GC-100 and cultured at 37° C. The results are shown in Table 5 and FIG. 11, which is a graph showing tyrosinase activity as a function of GC-100 concentration.

[2] = Radial forearm free-flap, trophic effect; type: in vivo
[3] = tested on: human skin analog, Skin^2; test: MTT cytotoxicity assay; type: cell-based; settings: cytotoxic = levels below 80% of untreated control
Description: Preclinical studies used a three-dimensional metabolically and mitotically active in vitro human skin analog, Skin^2™. This human skin substrate consists of neonatal foreskin fibroblasts that secrete a functionally active extracellular matrix grown on a medical-grade nylon mesh cocultured with human neonatal foreskin keratinocytes that differentiate into a multilayered epidermis.
This Example tested cellular viability and measured cell respiration in vitro in response to the application of GC-100 preparations.
The toxicity of a substance can be quantified by sustained metabolic activity of the cell in the presence of test substance. The integrity of cellular metabolism can be evaluated using the MTT Coloration Assay, which relies on the metabolism of 3-[4,5-dimethylthiazol-2-yl]-2,5-diphenyl tetrazolium bromide by succinate dehydrogenase of the citric acid cycle. Since the metabolism of MTT is dependent on mitochondrial activity, the amount of metabolite produced can be correlated with the number of viable cells present per well. The metabolite concentration is measured via spectrophotometry, with the absorption value converted to an absolute number that describes cellular growth.

H-Lys-Pro-NH2 [GC-100]
average increase in O2 consumption (hepatocytes): 282%±30
% increase O2 consumption (hepatocytes; 57 mg cells): 310%
Final consumption, ha (hepatocytes; 57 mg cells): 1.259 nm O2/min/mg cells
% increase O2 consumption (hepatocytes; 58 mg cells): 260%
Final consumption, ha (hepatocytes; 58 mg cells): 1.003 nm O2/min/mg cells
% increase O2 consumption (hepatocytes; 60 mg cells): 240%
Final consumption, ha (hepatocytes; 60 mg cells): 0.865 nm O2/min/mg cells
% increase O2 consumption (hepatocytes; 63 mg cells): 280%
Final consumption, ha (hepatocytes; 63 mg cells): 0.879 nm O2/min/mg cells
% increase O2 consumption (hepatocytes; 64 mg cells): 320%
Final consumption, ha (hepatocytes; 64 mg cells): 0.954 nm O2/min/mg cells
proline incorporation relative to Retin-A (retinoic acid) 0.025% [1]: more than twice
Tyrosinase activity (% of untreated control) (tyrosinase; GC-100 250 μg/mL): 57.3 ± 12%
Tyrosinase activity (% of untreated control) (tyrosinase; GC-100 500 μg/mL): 34.1 ± 14%
Tyrosinase activity (% of untreated control) (tyrosinase; GC-100 1000 μg/mL): 6.6 ± 14.8%
acceleration of generalized healing ([2]; free flap full-thickness skin graft model, skin overlying a muscle belly): 50%
physical examination of treated flap skin ([2]; superior half of flap treated three times over 9 days from postoperative day 14): noticeably thicker, smoother and less erythematous
cytotoxic response (MTT) [3]: does not elicit a cytotoxic response
